Source: patent publication US9518078B2, “Disaccharide synthetic lipid compounds and uses thereof” (AVANTI POLAR LIPIDS, INC., priority 2012, dated 2016)
“And” between values parts separate entries of the source, which are not always exact repeats. Equal entries are not always repeated.

Key:
[1] = biological target: T1, human TLR-4 receptor (Homo sapiens, UniProt O00206+Q9Y6Y9); assay: NFκB-inducible secreted alkaline phosphatase reporter in HEK-293 cells over-expressing human TLR-4; type: cell-based; conditions: hTLR-4 HEK-293, 18 h
T1 construct: expressed in transfected cells; host or cells: HEK-293
Description: (§1) HEK-293 cell lines engineered to functionally over-express human or murine TLR-4 receptor were utilized in the experiments below. These cells also contain a reporter gene (a secreted alkaline phosphatase) under the control of a NFκB inducible promoter. TLR-4 activation results are given as optical density (OD) values after 18 hours stimulation of the designated HEK-293 cell lines.
(§2) Samples and controls are tested in duplicate on recombinant HEK-293 cell lines. The negative controls for the assay were the parental HEK-293 cell lines transfected only with the reporter gene. Negative control cells were stimulated with TNF-α, an inducer of NFκB activity. The positive controls for the assay were HEK-293 cells transfected with human TLR-4 (hTLR-4) or mouse TLR-4 (mTLR-4) along with the reporter construct and activated with LPS 0111 (obtained from E. coli 0111:B4 strain) from 100 ng/ml to 0.01 ng/ml or with LPS K12 (obtained from E. coli K12 strain) from 100 ng/ml to 0.01 ng/ml.
(§3) Another synthetic disaccharide lipid compound used in this assay in an independent experiment, was the compound of the structure XV (referred to herein as MPLA-C). […] Test compounds were used at the following concentrations: 5.7 μM/570 nM/171 nM/57 nM/17 nM/5.7 nM/well to stimulate in duplicate hTLR4 and mTLR4 expressing cell lines.

[2] = test system: murine parental cell line (mTLR); assay: Negative control: murine parental HEK-293 cell line transfected only with the reporter gene; type: cell-based, mouse; conditions: parental HEK-293, 18 h
Description: as §1, §2
Another synthetic disaccharide lipid compound used in this assay in an independent experiment was the compound of the structure X (referred to herein as MPLA-D). […] Test compounds were used at the following concentrations: 5.71 μM/570 nM/171 nM/57 nM/17 nM/5.7 nM/well to stimulate in duplicate mTLR4 expressing cell lines.
as §3

T1 sequence (O00206 24-839): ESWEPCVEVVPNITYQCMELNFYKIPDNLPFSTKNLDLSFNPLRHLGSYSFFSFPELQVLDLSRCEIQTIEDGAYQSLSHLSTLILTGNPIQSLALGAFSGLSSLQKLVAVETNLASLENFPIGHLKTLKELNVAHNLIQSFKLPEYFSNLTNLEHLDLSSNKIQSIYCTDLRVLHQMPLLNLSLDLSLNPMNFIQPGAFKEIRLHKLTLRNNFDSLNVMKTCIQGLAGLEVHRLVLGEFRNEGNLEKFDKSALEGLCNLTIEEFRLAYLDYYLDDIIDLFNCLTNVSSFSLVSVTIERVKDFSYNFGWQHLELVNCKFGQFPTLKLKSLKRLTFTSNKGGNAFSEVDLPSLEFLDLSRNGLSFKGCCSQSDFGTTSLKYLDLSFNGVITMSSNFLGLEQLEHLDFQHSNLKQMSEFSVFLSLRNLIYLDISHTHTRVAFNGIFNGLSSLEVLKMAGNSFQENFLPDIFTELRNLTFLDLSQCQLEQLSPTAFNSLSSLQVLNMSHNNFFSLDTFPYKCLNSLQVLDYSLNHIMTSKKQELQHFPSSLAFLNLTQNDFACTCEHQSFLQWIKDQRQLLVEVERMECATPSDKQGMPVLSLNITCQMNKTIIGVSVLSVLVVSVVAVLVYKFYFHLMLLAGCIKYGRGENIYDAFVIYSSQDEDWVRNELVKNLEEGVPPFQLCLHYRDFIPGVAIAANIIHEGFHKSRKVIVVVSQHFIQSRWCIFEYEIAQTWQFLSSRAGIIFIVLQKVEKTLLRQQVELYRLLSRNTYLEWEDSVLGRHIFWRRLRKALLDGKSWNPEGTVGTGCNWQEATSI
T1 sequence (Q9Y6Y9 17-160 limits assumed): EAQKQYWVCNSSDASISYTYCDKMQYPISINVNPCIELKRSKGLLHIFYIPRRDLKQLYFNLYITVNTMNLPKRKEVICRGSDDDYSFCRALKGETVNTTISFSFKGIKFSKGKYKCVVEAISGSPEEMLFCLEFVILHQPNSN

TLR-4 activation, optical density (OD) ([1]; 0.1 ng/ml): 0.275 OD
TLR-4 activation, optical density (OD) ([1]; 0.3 ng/ml): 0.577 OD
TLR-4 activation, optical density (OD) ([1]; 1 ng/ml): 0.899 OD
TLR-4 activation, optical density (OD) ([1]; 3 ng/ml): 1.135 OD
TLR-4 activation, optical density (OD) ([1]; 10 ng/ml): 1.262 OD
TLR-4 activation, optical density (OD) ([1]; 30 ng/ml): 1.387 OD
Substance: TNF-α
NFκB reporter, optical density (OD), negative control cells ([2]; 0.3 ng/ml): 0.035 OD and 0.025 OD and 0.027 OD
NFκB reporter, optical density (OD), negative control cells ([2]; 3 ng/ml): 0.033 OD and 0.027 OD and 0.024 OD
NFκB reporter, optical density (OD), negative control cells ([2]; 30 ng/ml): 3.586 OD and 3.502 OD and 3.663 OD
